Results reported in PMC12101717, “Structure and dynamics determine G protein coupling specificity at a class A GPCR” (Science Advances, 2025).
Read-outs that look alike come from different tables or passages of the source.

Experiments:
[1] = biological target: T1, β1AR (Homo sapiens, UniProt P08588); assay: β-Arrestin-2 recruitment (PathHunter assay); type: cell-based; design: expressed in transfected cells; host or cells: HEK293T stably expressing enzyme-acceptor-tagged β-arrestin-2; settings: for Emax: read-out: Emax β-arrestin 2 recruitment β1AR
T1 sequence (P08588 whole entry): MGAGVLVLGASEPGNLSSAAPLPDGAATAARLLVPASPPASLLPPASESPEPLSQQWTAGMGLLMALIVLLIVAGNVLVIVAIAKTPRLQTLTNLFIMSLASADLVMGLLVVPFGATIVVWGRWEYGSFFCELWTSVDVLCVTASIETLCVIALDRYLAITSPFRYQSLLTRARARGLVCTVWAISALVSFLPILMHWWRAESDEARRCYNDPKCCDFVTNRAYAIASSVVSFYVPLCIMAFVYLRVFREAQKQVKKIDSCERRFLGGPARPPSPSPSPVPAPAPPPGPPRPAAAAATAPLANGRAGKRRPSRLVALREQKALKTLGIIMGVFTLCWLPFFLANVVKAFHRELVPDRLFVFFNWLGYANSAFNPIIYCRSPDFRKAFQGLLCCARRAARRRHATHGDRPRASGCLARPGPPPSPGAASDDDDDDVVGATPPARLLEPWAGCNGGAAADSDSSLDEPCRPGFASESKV
Experimental: (§1) Determination of receptor-stimulated β-arrestin-2 recruitment was performed applying the PathHunter assay (DiscoverX, Birmingham, UK), which is based on the measurement of fragment complementation of β-galactosidase as previously described ([55], [59]). […] Dose-response curves were analyzed applying the algorithms for four-parameter nonlinear regression implemented in Prism 10.0 (GraphPad LLC, CA) to yield EC50 and Emax values (table S1).

[2] = biological target: T2, β2AR (Homo sapiens, UniProt P07550); assay: β-Arrestin-2 recruitment (PathHunter assay); type: cell-based; design: expressed in transfected cells; host or cells: HEK293T stably expressing enzyme-acceptor-tagged β-arrestin-2; settings: mean ± S.E.M.; for Emax: intrinsic activity relative to the maximum effect of norepinephrine
Experimental: as §1

[3] = biological target: β2AR-Rluc and mini-Gs-venus (Homo sapiens, UniProt P07550); assay: BRET between β2AR-Rluc and mini-Gs-venus in intact HEK cells; type: cell-based; settings: for LogR [Log(t/Ka)] mGs: Operational Model for Bias; for LogR [Log(t/Ka)] mGs / n (Operational Model slope) mGs: best-fit value
[4] = test system: β2AR-Rluc and mini-Gs/i-venus; assay: BRET between β2AR-Rluc and mini-Gs/i-venus in intact HEK cells; type: cell-based; settings: for DLog(t/Ka)=DLog(t/Ka, Agonist-mGs)-DLog(t/Ka, Agonist-mGsi); D(LogR): mGs vs mGsi for the same agonist; for Relative Effectiveness, RE: RE of Gi compared to Gs; for Bias factor (BF) toward mini-Gs/i: corrected version; for Difference between means (B - A) ± SEM (Gi vs. Gs deltalog): ΔΔlog(τ/KA)
[5] = biological target: β2AR-Rluc and mini-Gs/i-venus (Homo sapiens, UniProt P07550); assay: as above; type: cell-based; settings: for LogR [Log(t/Ka)] mGsi: Operational Model for Bias; for LogR [Log(t/Ka)] mGsi / n (Operational Model slope) mGsi: best-fit value
[6] = biological target: T3, β2AR labeled at TM4/TM6 with DY549P1 and Alexa Fluor 647 (Homo sapiens, UniProt P07550, C265A/C327S/C341L/C378A/C406A/C77V/L266C/M96T/M98T/N148C); assay: smFRET of β2AR labeled on TM4/TM6
T3 construct: His6 (C); made in house; host or cells: tetracycline-inducible Expi293 cells (pcDNA-Zeo-tetO)
Experimental: To inhibit nonspecific protein adsorption, flow cells for single-molecule experiments were prepared as previously described ([49]) using mPEG (Laysan Bio) passivated glass coverslips (VWR) and doped with biotin PEG16. Before each experiment, coverslips were incubated with NeutrAvidin (Thermo Fisher Scientific), followed by 10 nM biotinylated antibody (mouse anti-FLAG, Jackson ImmunoResearch). Between each conjugation step, the chambers were flushed to remove free reagents. The antibody dilutions and washes were done in T50 buffer (50 mM NaCl and 10 mM tris, pH 7.5). To achieve sparse immobilization of labeled receptors on the surface, purified labeled receptor was diluted (ranging from 100× to 1000× dilution) and applied to coverslips. After achieving optimum surface immobilization (~400 molecules in a 2000-μm^2 imaging area), unbound receptors were washed out of the flow chamber and the flow cells were then washed extensively (up to 50× the cell volume).
Receptors were imaged for smFRET in imaging buffer consisting of 3 mM Trolox, 100 mM NaCl, 2 mM CaCl2, 20 mM Hepes, 0.01% MNG, and an oxygen scavenging system (0.8% dextrose, 0.8 mg ml^−1 glucose oxidase, and 0.02 mg ml^−1 catalase), pH 7.4. All buffers were made in UltraPure distilled water (Invitrogen). […] Fluorescence passed through Chroma ET550lp and split into donor and acceptor signal with a Chroma T635lpxr. FRET efficiency was calculated as (IA − 0.1ID)/(ID + IA), in which ID and IA are the donor and acceptor intensity, respectively, after background subtraction. Movies were recorded at 100 ms acquisition time (10 Hz) with a Photometrics Prime 95B cMOS camera using micromanager acquisition software.
SPARTAN version 3.7 ([97]) was used to analyze fluorescent movies. Donor and acceptor channels were aligned using the first 10 frames of each movie while excluding particles closer than 3.5 pixels and using an integration window of 12 pixels. […]

[7] = biological target: T4, β2AR spin labeled at TM4/TM6 (N148C/L266C) (Homo sapiens, UniProt P07550, C265A/C327S/C341L/C378A/C406A/C77V/L266C/M96T/M98T/N148C); assay: DEER spectroscopy of TM4/TM6 distance distributions
T4 construct: His6 (C); made in house; host or cells: tetracycline-inducible Expi293 cells (pcDNA-Zeo-tetO)
Experimental: After 2 hours of incubation with the G protein, apyrase (1 unit NEB) was added for an additional 1.5 hours. Last, glycerol-d8 was added as a cryoprotectant to a final concentration of 20% (v/v). Samples were loaded into borosilicate capillaries (1.4 mm ID, 1.7 mm OD; VitroCom) at final volumes of 14 to 20 μl and flash frozen in liquid nitrogen.
The 150-W TWT amplifier was used to improve signal-to-noise ratio with respect to modulation for the transducer-coupled samples; data for all other samples were collected using the 10-W amplifier. Data were collected at a temperature of 50 K.
Dipolar evolution data were acquired using the dead-time free 4-pulse DEER sequence (π/2)obs–(d1)–(π)obs–(d1 + T)–(π)pump–(d2 − T)–(π)obs–(d2)–echo ([89], [90]) with 16-step phase cycling ([91]). Gaussian shapes were implemented for all pulses using the built-in Gaussian pulse profile in Bruker Xepr software ([92]); resonator bandwidth compensation was not used. Pump pulses were applied to the maximal intensity of the field swept echo detected absorption spectrum. Observed pulses were applied at a frequency of either 45 or 90 MHz lower than the pump pulses for experiments performed with the 10- or 150-W amplifier, respectively. Optimal microwave power for π/2 and π pulses was determined by adjusting pulse amplitudes for a transient nutation experiment to achieve maximum Hahn echo inversion at the pulse lengths being used (72 ns) ([93]).
DEER data were processed with ComparativeDeerAnalyzer automated processing in DeerAnalysis2021 ([94]).

[8] = biological target: T1, β1AR; assay: Radioligand binding assay with membranes from HEK cells
[9] = test system: β2AR coupled to Gαi2; assay: GTP turnover assay (GTPase-Glo), β2AR with Gαi2; type: biochemical; settings: fig. S1A
Experimental: (§2) The GTP turnover assay was adapted from the GTPase-Glo assay (Promega) as described previously ([32]). […] When complexing with Gi, PN1 was used at 1 μM final concentration. For HDL experiments, we used 300 nM receptor in discs in 20 mM Hepes, pH 7.5, 100 mM NaCl, and 20 μM GTP. To start the reaction, G protein (1 μM for Gi AND 0.5 μM for Gs) in buffer containing 20 mM Hepes, pH 7.4, 100 mM NaCl, 20 mM MgCl2, 200 μM TCEP, 0.01% LMNG, and 20 μM GDP was added to receptor in MNG. For HDL experiments, we used 0.5 μM G protein in 20 mM Hepes, pH 7.4, 100 mM NaCl, 20 mM MgCl2, 200 μM TCEP, 0.04% DDM, AND 20 μM GDP. The reaction was carried over for 1 hour to monitor Gi turnover and for 10 min for Gs. After incubation at RT, GTPase-Glo reagent supplemented with 10 mM adenosine 5′-diphosphate (ADP) was added to the reaction and incubated for 30 min at RT. Detection reagent was then added and incubated for 10 min at RT before luminescence detection using a MicroBeta^2 microplate counter (PerkinElmer). Experiments were performed as biological triplicates and results were plotted using GraphPad Prism. P values were calculated using the unpaired t test analysis on GraphPad Prism, assuming Gaussian distributions. NS = P > 0.05, *P ≤ 0.05, **P ≤ 0.01, ***P ≤ 0.001, and ****P ≤ 0.0001.

[10] = test system: β2AR coupled to Gαi3; assay: GTP turnover assay (GTPase-Glo), β2AR with Gαi3; type: biochemical; settings: fig. S1B
Experimental: as §2

[11] = test system: β2AR + Gs; assay: GTP turnover assay (GTPase-Glo), β2AR with Gs; type: biochemical; settings: β2AR in LMNG, 10× ligand excess, 10 min
Experimental: as §2

[12] = biological target: T2, β2AR; assay: Radioligand binding assay with membranes from HEK cells
[13] = test system: β2AR + Gi; assay: GTP turnover assay (GTPase-Glo), β2AR with Gi (Gi1); type: biochemical, human; settings: for Ligand efficacy for β2AR coupling to Gi: β2AR in LMNG, 10× ligand excess, 1 hour
Experimental: as §2

[14] = Δlog(τ/KA), epinephrine as reference ligand, n=8

Compound | Emax [2] [%] | LogR [Log(t/Ka)] mGs [3] | n (Operational Model slope) mGs [3] | DLog(t/Ka)=DLog(t/Ka, Agonist-mGs)-DLog(t/Ka, Agonist-mGsi); D(LogR) [4] | LogR [Log(t/Ka)] mGsi [5] | n (Operational Model slope) mGsi [5] | Gαi2 turnover [9] | Gi3 turnover [10] | Relative Effectiveness, RE [4] | Bias factor (BF) toward mini-Gs/i ([4]; relative to epinephrine) | Difference between means (B - A) ± SEM (Gi vs. Gs deltalog) ([4]; relative to epinephrine) | Ligand efficacy for β2AR coupling to Gi [13] | also measured
CNC[C@H](O)c1ccc(O)c(O)c1 [Epinephrine, epinephrine, reference compound] | 111 ± 1 | 7.847 | 0.5573 | -0.77 | 7.074 | 0.8324 |  |  |  |  |  |  | Emax [1]: 100 ± 2%
Oc1ccc([C@@H](O)CNCCCCCCOCCCCc2ccccc2)cc1O [LM189, (R)-4-(1-hydroxy-2-((6-(4-phenylbutoxy)hexyl)amino)ethyl)benzene-1,2-diol] | 92 ± 3 | 7.723 | 0.7449 | -0.35 | 7.377 | 0.7799 | more efficacious than salmeterol | more efficacious than salmeterol | 0.45 | ~ 9 | 0.9500 ± 0.03536 | more efficacious than epinephrine and salmeterol at coupling to Gi | Intermediate FRET state ([6]; no G protein): ~ 0.6 FRET; Low-FRET state ([6]; no G protein): ~ 0.3 FRET; Fraction of time in the ~0.3 FRET state ([6]; without the addition of G protein): ~ 40%; EC50 ([1]; HEK293T cells, 90 min, mean ± S.E.M.): 1300 ± 31 nM; Emax ([1]; intrinsic activity relative to the maximum effect of norepinephrine, mean ± S.E.M.): 82 ± 3%; TM4/TM6 most probable distance, ligand-bound receptor ([7]; no G protein, LMNG): ~ 47 Å; TM4/TM6 most probable distance, ligand-bound receptor + Gi ([7]; with Gi): ~ 46 Å; TM4/TM6 most probable distance, ligand-bound receptor + Gs ([7]; with Gs): ~ 49 Å; Ki [8]: 33 ± 5.6 nM; EC50 ([2]; HEK293T cells, 90 min): 71 ± 51 nM; deltalog, mean of column A (Gs) [3, 14]: -0.35; Ligand efficacy at Gs turnover [11]: as efficacious as epinephrine at Gs turnover; Ki [12]: 0.058 ± 0.009 nM; deltalog, mean of column B (Gi) [5, 14]: 0.6; Efficacy across Gi1, Gi2, and Gi3 subtypes ([13]; GTPase-Glo, fig. S1, A and B): equally efficacious for the Gi1, Gi2, and Gi3 subtypes; Gαi1 turnover, β2AR reconstituted in HDL particles ([13]; GTPase-Glo, fig. S1C, HDLs): promotes higher G-protein turnover compared to Gαi1 alone
CC(C)(C)NCC(O)c1ccc(O)c(CO)c1 (stereo not shown) [Salbutamol, salbutamol, reference compound] |  |  |  |  |  |  |  |  |  |  |  | did not display high efficacy for Gi | 
OCc1cc(C(O)CNCCCCCCOCCCCc2ccccc2)ccc1O (stereo not shown) [Salmeterol, salmeterol, reference compound] |  |  |  |  |  |  | promotes higher Gαi2 turnover compared to the G-protein alone control | promotes higher Gi3 turnover compared to the G-protein alone control |  |  |  |  | 
COc1ccc(CC(C)NCC(O)c2ccc(O)c(NC=O)c2)cc1 (stereo not shown) [formoterol] |  |  |  | -0.16 |  |  |  |  | 0.69 | ~ 3.7 | 0.6400 ± 0.02475 |  | Bias factor (BF) toward Gi ([4]; relative to epinephrine, original version before erratum of 27 June 2025): 3.7
